Experimental data: patent US9969771B2, “Tetrapeptide having effect of inhibiting VEGF-induced angiogenesis and use thereof” (AVIXGEN INC., priority 2015, dated 2018)
Where a SMILES comes first, the peptide text is derived from it.

Assays:
[1] = test system: HUVECs; assay: Confocal microscopy of FITC-RLYE binding to HUVECs; design: species or system human
Procedure: HUVECs were incubated on a cover glass coated with 2% gelatin, and then incubated with FITC-RLYE (SEQ ID NO: 2) (100 ng/ml) after being treated with VEGF-A (10 ng/ml) for 30 minutes or not treated. The cells were fixed in 3.7% formaldehyde for 30 minutes, treated with 0.2% TritonX-100-containing PBS, and reacted with a 3% goat serum and 0.05% Tween-20-containing PBS blocking solution. The cells were reacted with a PECAM-1 antibody at room temperature for 2 hours, washed with PBS, and reacted with a TRITC-conjugated secondary antibody at room temperature for 90 minutes. Samples were observed under a confocal microscope.

[2] = test system: aortic ring; assay: Aortic ring sprouting assay (ex vivo); design: species or system Sprague-Dawley rat; conditions: RLYE 0.3 nM, VEGF 20 ng/ml
Procedure: An aortic ring sprouting assay was performed by a method modified based on previous research. A 1-mm-thick aortic ring prepared from a Sprague-Dawley rat (7-week-old male) was placed in a 96-well plate coated with 120 μl of Matrigel, sealed with 50 μl of Matrigel, and incubated with RLYE (SEQ ID NO: 2) (0.3 nM) or VEGF (20 ng/ml) in a total of 200 μl of a serum-free medium. Blood vessels newly formed at day 6 were fixed, microvascular formation was observed under a phase-contrast microscope, and angiogenesis was quantified with Image Jsoftware available at NIH website, rsb.info.nih.gov/ij.

[3] = test system: B16F10 mouse melanoma cells; assay: Tumor metastasis experiment model (B16F10); type: in vivo, C57BL/6J mouse; conditions: B16F10, 1 mg/kg per day peritoneally, three weeks, versus untreated control mouse
Procedure: 1×10^5 B16F10 mouse melanoma cells were injected into the caudal vein in the C57BL/6J mouse, and 1 mg/kg (100 μl) of RLYE (SEQ ID NO: 2) was peritoneally injected daily for 3 weeks. The lung was extracted and washed with Dulbecco's PBS, fixed in a 4% paraformaldehyde solution overnight, and the number of tumor metastasis shown on the entire surface of the lung was counted under a stereoscopic microscope.

binding to HUVEC surface (confocal microscope) ([1]; pretreatment of VEGF-A): effectively blocked | binding to HUVEC surface (confocal microscope) ([1]; without VEGF-A pretreatment): binds to a HUVEC surface
SMILES: CC(C)C[C@H](NC(=O)[C@@H](N)CCCNC(=N)N)C(=O)N[C@@H](Cc1ccc(O)cc1)C(=O)N[C@@H](CCC(=O)O)C(=O)O [RLYE] (H-RLYE-OH; N-terminus and C-terminus assumed)
VEGF-A-induced angiogenesis at the edge of the aortic ring [2]: significantly inhibited | decrease in number of colonies of tumor cells spreading to the lung [3]: 62%
